One series relates to patients with CFS. The experiment in a line: Questioning of patients with CFS about lassitude, weakness and psychoneurotic symptom. As to conditions: 100 mg intravenously daily for 14 days. It counts as in vivo, human. How it is done: (§1) An injection containing 100 mg of a test compound was intravenously administered to two patients with CFS (A, B), continuously, for 14 days. The measurement of DHAS concentration in plasma was conducted before administration and 13 hours after administration with respect to the first and second days, while the measurement was conducted before administration with regard to the third, fifth, eighth, eleventh and fourteenth days. On the fourteenth day from the day on which first administration was conducted, the patients were questioned about lassitude, weakness and psychoneurotic symptom.

A short description of series [1]: Measurement of DHAS concentration in plasma of patients with CFS given the injection intravenously. The following applies: human, iv, 100 mg, 100 mg intravenously daily for 14 days; for concentration at 13 h: 13 hours after administration; for concentration at 48 h / concentration at 72 h / concentration at 120 h / concentration at 192 h / concentration at 264 h / concentration at 336 h: before administration; for concentration at 72 h: 3 days; for concentration at 120 h: 5 days; for concentration at 192 h: 8 days; for concentration at 264 h: 11 days; for concentration at 336 h: 14 days. It counts as in vivo. How it is done: as §1

Another series has as its system ^51Cr-labelled K562. The experiment in a line: Natural killer (NK) activity of patient B, cytotoxic activity against 51Cr-labelled target cells. It counts as in vivo, human. As to the method: as §1
With regard to the patient B, a natural killer (NK) activity was measured after administration on the first day and before administration on the fifteenth day. The measurement of the NK activity was conducted in accordance with the method described in Later Biological Experimental Course, No. 5, Process for Study of Immunobiochemistry (Incorporation of The Japanese Biochemistry Society ed., published by Tokyo Kagaku Dojin Co.), page 186. That is, the NK activity was measured by using, as an indication, a cytotoxic activity determined by using ^51Cr-labelled K562 as a target cell. Incidentally, a ratio of effector cell to target cell (E/T ratio) was set at 10:1 or 20:1.

SMILES strings stand for the structures. Where a name gives a salt, the structure may show the parent alone.

These results are taken from EP0979653A1, “REMEDY FOR CHRONIC FATIGUE SYNDROME” (KANEBO, LTD., priority 1996, dated 1998).

Turning to `C[C@]12CC[C@H](OS(=O)(=O)O)CC1=CC[C@@H]1[C@@H]2CC[C@]2(C)C(=O)CC[C@@H]12` [Sodium salt of DHAS, dehydroepiandrosterone sulfate], in the series with patients with CFS (patient A), the “Degree of improvement on the fourteenth day Lassitude” value is recorded as “improved”, the “Degree of improvement on the fourteenth day Psychoneurotic symptom” value is “Improved” and the “Degree of improvement on the fourteenth day Weakness” value was “Improved”. For the same molecule, in the series with patients with CFS (patient B), the “Degree of improvement on the fourteenth day Lassitude” value is listed as “improved”, the “Degree of improvement on the fourteenth day Psychoneurotic symptom” value is on record as “Improved” and the “Degree of improvement on the fourteenth day Weakness” value is given as “Improved”. In addition, the concentration at 13 h in series [1] (patient A, 1 day) amounted to 6360 ng/mL. In series [1] (patient A, 2 days), this molecule displayed a concentration at 13 h of 6340 ng/mL and a concentration at 48 h of 2460 ng/mL. In addition, in series [1] (patient A), the concentration at 72 h is 2460 ng/mL, the concentration at 120 h is 2160 ng/mL, the concentration at 192 h is 2140 ng/mL and the concentration at 264 h came to 2110 ng/mL. The molecule further yielded a concentration at 336 h in series [1] (patient A) of 3000 ng/mL. For the same molecule, the concentration at 13 h in series [1] (patient B, 1 day) amounted to 8900 ng/mL. For the same molecule, in series [1] (patient B, 2 days), the concentration at 13 h came out at 7650 ng/mL and the concentration at 48 h turned out to be 2680 ng/mL. In series [1] (patient B), this molecule registered a concentration at 72 h of 2820 ng/mL, a concentration at 120 h of 4140 ng/mL, a concentration at 192 h of 2050 ng/mL and a concentration at 264 h of 2480 ng/mL. The molecule also returned a concentration at 336 h in series [1] (patient B) of 2800 ng/mL. In the series on ^51Cr-labelled K562 (E/T ratio 10:1, after administration on the fourteenth day (before administration on the first day: 7.2)), the “NK activity (%)” value came out at 12.1%. Besides, the “NK activity (%)” value with ^51Cr-labelled K562 (E/T ratio 20:1, after administration on the fourteenth day (before administration on the first day: 13.7)) is listed as 18.5%.
